Experimental data as given in publication PMC5381078, “Carboxylate derivatives of tributyltin (IV) complexes as anticancer and antileishmanial agents” (DARU Journal of Pharmaceutical Sciences, 2017).
Values after ≈ are worked out from the molar mass of the structure shown. Numbered stars: 1 amine (or outer) side, 2 acyl side, 3 side chain; on linkers, the order of the positions; unused ones are H or OH. Bridge positions count the residues as written; N and C are the ends. Square brackets hold non-standard residues; d marks the D form. Peptide text beside a SMILES is read from it. X1 = CC(C)CCCCCCCCC[C@H](CC(=O)[*:1])O[*:2]

How the values were obtained:
THP-1 cell line = experiment: Cytotoxicity against THP-1 cell line (MTT assay); format: cell-based, human; details: 72 h; for THP-1 % growth inhibition: 20 μg/mL
Protocol: Cytotoxicity of tributyltin (IV) compounds against THP-1 cell line was determined by 3-(4,5-dimethylthiazol-2-yl)-2,5-diphenyl tetrazolium bromide (MTT) assay. THP-1 cells were cultured in complete growth medium comprising RPMI-1640 (pH 7.4) supplemented with 2.2 g/L NaHCO3 and 10% v/v heat inactivated fetal bovine serum (HIFBS). An aliquot of 20 μL of samples in 1% DMSO in PBS and 180 μL of THP-1 cells were mixed in 96-well plate. Cells were added at an assay density of 1 × 10^4 cells/mL whereas sample/standard was added to achieve the final concentration of 20 μg/mL. The plate was incubated at 37 °C for 72 h in humidified 5% carbon dioxide incubator (Panasonic, Japan MCO-18 AC-PE). Vincristine and 1% DMSO in PBS were used as positive and negative controls respectively. After incubation, 20 μL of pre-filter sterilized MTT solution (4 mg/mL in distilled water) was added in plates and incubated for 4 h at 37 °C in CO2 incubator. Later, colored formazan crystals were separated by removing supernatant and dissolved in 100 μL of DMSO. Reaction was allowed to stand for 1 h to ensure complete dissolution and absorbance was measured at 540 nm using microplate reader (Biotech USA, Elx 800).

[1] = test system: promastigotes of Leishmania tropica kwh 23; experiment: Antileishmanial activity (MTT assay); format: cell-based; details: 72 h; for Antileishmanial % growth inhibition (mortality, lethality): 20 μg/mL; for Antileishmanial LC50: MTT
Protocol: Antileishmanial activity against the promastigotes of Leishmania tropica kwh 23 was evaluated by a quantitative colorimetric assay using 3-(4,5-dimethylthiazol-2-yl)-2, 5-diphenyl tetrazolium bromide (MTT) with minor modifications. […] […] Negative control wells contained 1% DMSO in PBS. All samples were run in triplicate. Afterwards, plates were incubated for 4 h at 24 °C with 20 μL of MTT (4 mg/mL in distilled water) to determine the cell viability. Supernatant from each well was carefully removed leaving behind formazan crystals. Colored formazan crystals were dissolved in 100 μL of DMSO by setting those aside for 1 h to ensure complete dissolution. Cell viability was estimated by measuring absorbance at 540 nm using microplate reader and percentage growth inhibition was calculated.

[2] = test system: Leishmania tropica kwh 23 promastigotes; experiment: Photosensitizing effect against leishmania; format: cell-based; details: for Photosensitizing effect % growth inhibition, Sunlight with IR filter: 15 min; for Photosensitizing effect % growth inhibition, Sunlight: 15 min sunlight
Protocol: Photosensitizing effect of tributyltin (IV) compounds was determined in three parallel groups. Samples and controls were exposed for 15 min to sunlight (168 W/m^2 of sun intensity) or sunlight with IR filter or dark conditions. The relative intensity of sunlight was measured by a CCD spectrometer (Ocean Optics, model HR4000). Later, plates were incubated at 25 °C for 72 h and cell viability was determined by MTT assay as given above. In this assay, samples were tested at concentrations showing less than 55% inhibition in primary antileishmanial assay to exclude false positive.

isolated lymphocytes = experiment: Cytotoxicity against isolated lymphocytes (MTT assay); format: cell-based, human; details: 24 h
Protocol: Lymphocytes were isolated using previously described protocol with some modifications. Informed consent was obtained from volunteers and procedure was conducted according to international ethical guidelines after gaining approval from the ethical committee of the Quaid-i-Azam University. A volume of 3 mL of blood was obtained from a healthy donor by venipuncture and diluted (1:1) with PBS. It was layered over 2 mL Histopaque-1077 and centrifuged at 800 × g for 20 min. The buffy coat was aspirated into 5 mL of PBS and centrifuged at […] for 4 min to pellet the lymphocytes. The pellet was suspended in 1 mL of RPMI-1640 and cell density was adjusted to get 1 × 10^5 cells/mL. For cytotoxicity determination, 20 μL of samples (20 μg/mL) or vincristine or 1% DMSO in PBS and 180 μL of lymphocyte suspension were incubated in 96-well plate at 37 °C for 24 h in humidified 5% carbon dioxide incubator (Panasonic, Japan MCO-18 AC-PE). Phytohaemagglutinin (PHA) was added in medium to stimulate lymphocyte growth. Afterwards, MTT assay was done as described above. IC50 values were determined using 3-fold dilutions of the samples.

Streptomyces 85E = experiment: Protein kinase inhibition assay (Streptomyces disc assay); format: cell-based; details: for MIC for PK inhibition: minimum inhibitory concentration
Protocol: Protein kinase inhibitory activity of the tributyltin (IV) compounds was measured against Streptomyces 85E strain using previously described protocol. Culture of Streptomyces 85E was refreshed in tryptic soy broth and 100 μL of this was swabbed on sterile ISP4 medium under aseptic conditions. […] Diameter (mm) of zone of inhibition (ZOI) around all samples and controls was measured as clear zone (CZ) and bald zone (BZ). […] BZ is indicative of PK inhibition.

HepG2 cell line = experiment: Cytotoxicity against HepG2 cell line (SRB assay); format: cell-based, human; details: for HepG2 % growth inhibition: 20 μg/mL
Protocol: Cytotoxicity was further evaluated against HepG2 cell line by sulforhodamine B (SRB) colorimetric assay. Dulbecco's Modified Eagle Medium (DMEM) supplemented with 10% FBS, 100 μg/mL streptomycin sulfate, 100 IU/mL penicillin G sodium and 0.25 μg/mL amphotericin B was used to culture HepG2 cells in CO2 (5%) incubator (Panasonic, Japan MCO-18 AC-PE) at 37 °C. An aliquot of 20 μL (1% DMSO in PBS) of samples was added to 180 μL of cell culture at an assay density of 1x10^5 cells/mL in 96-well plate. The plate was incubated at 37 °C for 72 h in CO2 incubator. Final concentration of compounds/standard was 20 μg/mL. Doxorubicin and 1% v/v DMSO in PBS ere used as positive and negative controls respectively. An equivalent number of cells in twelve wells of 96-well plate were incubated for 1 h at 37 °C and labeled as day zero control. Later, cells were fixed by adding 50 μL of cold 20% w/v TCA for 1 h at 4 °C. These were washed with tap water, air dried and stained with 50 μL of 0.057% w/v SRB in 1% v/v acetic acid for 30 min at room temperature. Cells were again washed with 1% v/v acetic acid, dried overnight and 200 μL of 10 mM Tris base (pH 10) was used to solubilize the bound dye for 1 h. Absorbance was measured at 515 nm using a microplate reader. Percentage of growth inhibition was calculated as: % inhibition = 100 – [(As – Ao) / (An – Ao) × 100], where, Ao, As and An are absorbance of day zero control, samples and negative control respectively. IC50 values were determined using 3-fold dilutions of the samples.

[3] = 6.25 μg/disc, BZ indicative of PK inhibition
[4] = 50 μg/disc, BZ indicative of PK inhibition, (-) shows no ZOI

SMILES | THP-1 % growth inhibition (THP-1 cell line) [%] | Antileishmanial % growth inhibition (mortality, lethality) [1] [%] | Antileishmanial LC50 [1] [µg/mL] | ZOI BZ (bald zone) (Streptomyces 85E; [3]) [mm] | ZOI CZ (clear zone) (Streptomyces 85E; 50 μg/disc, (-) shows no ZOI) [mm] | MIC for PK inhibition (Streptomyces 85E) [μg/disc] | HepG2 % growth inhibition (HepG2 cell line; 72 h) [%] | HepG2 IC50 (HepG2 cell line; 72 h, 3-fold dilutions) [µg/mL] | Photosensitizing effect % growth inhibition, Control ([2]; 0.092 μg/mL) [%] | Photosensitizing effect % growth inhibition, Dark ([2]; 0.092 μg/mL) [%] | Photosensitizing effect % growth inhibition, Sunlight with IR filter ([2]; 0.092 μg/mL) [%] | Photosensitizing effect % growth inhibition, Sunlight ([2]; 0.092 μg/mL) [%] | Isolated lymphocytes % growth inhibition (isolated lymphocytes; 20 μg/mL) | further results
CCC[CH2][Sn]([CH2]CCC)([CH2]CCC)[O]C(=O)COc1ccc(OCC(=O)[O][Sn]([CH2]CCC)([CH2]CCC)[CH2]CCC)cc1 [Ch-409, bis(tributylstannyl) 2,2’-(1,4-phenylenebis(oxy))diacetate] | 19.4 ± 1.41 | 97.5 ± 1.98 | 0.954 ± 0.158 | 30 ± 1.17 | 30 ± 1.75 | 0.781 ± 0.002 | 99.5 ± 3.15 | 0.08 ± 0.001 | – | – | – | – | – | Photosensitizing effect % growth inhibition, Control ([2]; 0.55 μg/mL): 52.05 ± 1.98%; Photosensitizing effect % growth inhibition, Dark ([2]; 0.55 μg/mL): 56.9 ± 0.02%; Photosensitizing effect % growth inhibition, Sunlight with IR filter ([2]; 0.55 μg/mL): 47.5 ± 1.56%; Photosensitizing effect % growth inhibition, Sunlight ([2]; 0.55 μg/mL): 57.63 ± 1.99%; Isolated lymphocytes IC50 (isolated lymphocytes): 15.18 ± 0.75ǂ μg/mL; ZOI CZ (clear zone) (Streptomyces 85E; 6.25 μg/disc, (-) shows no ZOI): 12 ± 0.19 mm; ZOI BZ (bald zone) (Streptomyces 85E; [4]): 31 ± 1.5 mm
CCC[CH2][Sn]([CH2]CCC)([CH2]CCC)[O]C(=O)/C=C\C(=O)Nc1ccc(C(=O)OCC)cc1 [Ch-431, ethyl (Z)-4-(4-oxo-4-((tributylstannyl)oxy)but-2-enamido)benzoate] | 42.7 ± 1.13 | 97.5 ± 2.75 | 0.078 ± 0.002 | 26 ± 0.16 | 31 ± 0.78 | 0.049 ± 0.002 | 96.2 ± 2.23 | 5.48 ± 0.16 | 50.7 ± 1.25 | 51.5 ± 1.35 | 47.5 ± 0.99 | 53.2 ± 1.55 | 10.7 ± 1.17ǂ % | ZOI CZ (clear zone) (Streptomyces 85E; 6.25 μg/disc, (-) shows no ZOI): 10 ± 0.33 mm; ZOI BZ (bald zone) (Streptomyces 85E; [4]): 33 ± 1.15 mm
CCC[CH2][Sn]([CH2]CCC)([CH2]CCC)[O]C(=O)CCC(=O)Nc1ccc(C(=O)[O][Sn]([CH2]CCC)([CH2]CCC)[CH2]CCC)cc1 [Ch-448, tributylstannyl 4-(4-oxo-4-((tributylstannyl)oxy)butanamido)benzoate] | 43.1 ± 2.29 | 96.5 ± 2.67 | 0.576 ± 0.088 | 25 ± 1.75 | 31 ± 1.05 | 0.781 ± 0.002 | 97.1 ± 2.34 | 3.45 ± 0.63 | – | – | – | – | 23.6 ± 1.07ǂ % | Photosensitizing effect % growth inhibition, Control ([2]; 0.55 μg/mL): 54.65 ± 2.75%; Photosensitizing effect % growth inhibition, Dark ([2]; 0.55 μg/mL): 50.16 ± 1.19%; Photosensitizing effect % growth inhibition, Sunlight with IR filter ([2]; 0.55 μg/mL): 52.9 ± 1.17%; Photosensitizing effect % growth inhibition, Sunlight ([2]; 0.55 μg/mL): 49.7 ± 0.89%
CCC[CH2][Sn]([CH2]CCC)([CH2]CCC)[O]C(=O)c1ccccc1C(=O)Nc1cccc2ccccc12 [Ch-450, tributylstannyl 2-(naphthalene-1-ylcarbamoyl)benzoate] | – | 97.4 ± 1.35 | 0.361 ± 0.017 | 28 ± 2.5 | 32 ± 1.13 | 0.195 ± 0.001 | 98.5 ± 1.85 | 2.81 ± 0.34 | 24.5 ± 1.63 | 26.34 ± 0.15 | 20.7 ± 0.43 | 32.12 ± 1.28 | 11.7 ± 0.05ǂ % | –
CCC[CH2][Sn]([CH2]CCC)([CH2]CCC)[O]C(=O)/C=C\C(=O)Nc1cccc(C)c1C [Ch-459, tributylstannyl (Z)-4-((2,3-dimethylphenyl)amino)-4-oxobut-2-enoate] | – | 97.9 ± 3.99 | 0.323 ± 0.002 | 30 ± 0.24 | 35 ± 0.99 | 0.391 ± 0.004 | 96.5 ± 4.66 | 0.62 ± 0.005 | 20.1 ± 0.59 | 22.7 ± 1.05 | 30.14 ± 1.47 | 25.5 ± 1.75 | – | Isolated lymphocytes IC50 (isolated lymphocytes): 5.78 ± 0.34ǂ μg/mL
COc1cccc2c1C(=O)c1c(O)c3c(c(O)c1C2=O)C[C@@](O)(C(=O)CO)C[C@@H]3O[C@H]1C[C@H](N)[C@H](O)[C@H](C)O1 [Doxorubicin, reference compound] | – | – | – | – | – | – | – | – | – | – | – | – | – | inhibition at 20 µg/mL (HepG2 cell line; Homo sapiens, HepG2, 20 μg/mL, 72 h, read-out: HepG2 % growth inhibition): 97.2 ± 1.14%; IC50 (HepG2 cell line; Homo sapiens, HepG2, 72 h, 3-fold dilutions): 5.36 ± 0.75 µg/mL (≈ 9.86 µM)
CC(C)CCCCCCCCC[C@@H]1CC(=O)N[C@@H](CCC(=O)O)C(=O)N[C@@H](CC(C)C)C(=O)N[C@H](CC(C)C)C(=O)N[C@@H](C(C)C)C(=O)N[C@@H](CC(=O)O)C(=O)N[C@H](CC(C)C)C(=O)N[C@@H](CC(C)C)C(=O)O1 [Surfactin, reference compound] (EL[dL]VD[dL]L; linker N-C via X1) | – | – | – | – | – | – | – | – | – | – | – | – | – | ZOI BZ (bald zone) (Streptomyces 85E; Surfactin positive control, printed 10 μg/mL): 23 ± 1.98 mm
CC[C@]1(O)C[C@H]2CN(CCc3c([nH]c4ccccc34)[C@@](C(=O)OC)(c3cc4c(cc3OC)N(C=O)[C@H]3[C@@](O)(C(=O)OC)[C@H](OC(C)=O)[C@]5(CC)C=CCN6CC[C@]43[C@@H]65)C2)C1 [Vincristine, reference compound] | – | – | – | – | – | – | – | – | – | – | – | – | – | inhibition at 20 µg/mL (THP-1 cell line; Homo sapiens, THP-1, 20 μg/mL, read-out: THP-1 % growth inhibition): 100%; inhibition at 20 µg/mL (isolated lymphocytes; Homo sapiens, Lymphocyte, 20 μg/mL, read-out: Isolated lymphocytes % growth inhibition): 76.3 ± 3.65%; IC50 (isolated lymphocytes; Homo sapiens, Lymphocyte): 6.66 ± 0.09 µg/mL (≈ 8.07 µM)
